Like-named read-outs stand apart in the source and are kept apart here.
Legend:
[1] = Pharmacokinetic study in mice in vivo (gavage and tail vein injection); conditions: for AUC(0-t) / Cmax: dose 1 mg/kg
Text: […] Mouse plasma was collected at a specific time point after administration, and the concentration of the compound in plasma was detected by LC-MS/MS (AB SCIEX Qtrap4500). PK parameters of each compound (WinNonlin V5.2, Pharsight) were statistically analyzed and calculated to reflect the pharmacokinetic properties of the compounds of the present disclosure in mice in vivo.

[2] = Tissue distribution in CD-1 mice after single intragastric administration; assay type: in vivo; conditions: mouse, oral, male CD-1 mice, 10 mg/kg intragastric
Method: Mice: CD-1 mice, SPF grade, 9, male, weighting 18 to 22 g (source: SPF (Beijing) Biotechnology Co., Ltd., certificate number: 110324200103036532).
Dispensing: After accurately weighing compound L015, 20% solutol of the required volume was added thereto first, sonicated for 20 min and stirred for 1.5 hours until no visible particles were visible to the naked eye, and the middle layer of the drug solution was taken for drug administration. 2 parts of the top, middle, and bottom layers of the suspension were taken, and 2 parts of the middle layer of the clarified solution were taken, and 100 μL of each part was accurately aspirated into a 1.5 mL EP tube. Samples were taken before administration, and after sampling, the samples were stored in a −80° C. refrigerator and sent together with the plasma samples for bioanalytical test.
Animals were randomly divided into 3 groups. Compound L015 was administered at 3 different time points, with 3 animals per group, all males. All mice were given a single intragastric administration with an administration volume of 10 mL/kg. The specific grouping and administration information is as follows:
After the administration was completed, the animals in each group were anesthetized by intraperitoneal injection of 1% pentobarbital sodium (the administration volume was 0.06 mL/10 g) 5 minutes before their respective time points, and about 0.3 mL of blood was collected in an anticoagulant EP tube (containing 4 μL of EDTA-K2, 375 mg/mL), which was gently inverted for 3 times and stored in an ice box (no more than 30 minutes), centrifuged at 4° C. for 10 minutes with 3500×g. The supernatant was transferred to a labeled EP tube for bioanalytical test. If it could not be analyzed the same day, it was stored at −80° C. until further testing (be careful not to perform multiple freezing/thawing processes).
After the blood was taken, the abdominal cavity was quickly opened, and the abdominal aorta and vein of the […] were cut. After the blood was drained, the heart, liver, spleen, lung, kidney, and brain of the rat were taken, respectively. After the tissue was taken, the tissue was immediately rinsed with normal saline to remove any residual blood on the surface, blotted dry with filter paper, and the connective tissue was removed and weighed. The homogenization tube was placed in an ice water bath, and the tissue sample homogenate was thoroughly homogenized with a high-speed homogenizer and sent for bioanalytical test. If it could not be analyzed the same day, it was stored at −80° C. until further testing (be careful not to perform multiple thawing/freezing processes).
1.5 Sample analysis method 1.5.1 Experimental instruments: • High performance liquid chromatography pump (pump): Exion LC AD Pump, Sciex Company • Auto sampler: Exion LC AD Autosampler, Sciex Company • Column oven: Exion LC AD Column Oven, Sciex Company • Mass spectrometer: AB Sciex Qtrap 4500 • High-speed refrigerated centrifuge (centrifuge): Thermo Fisher, ST16R, GG1206085-093 • Analytical balance (electronic balance): Mettler Toledo, MS-105D, GG1206363 • Micro vortex (vortex): Shanghai Huxi Analysis Instrument Factory, WH-2, GG1206487 1.5.2 Experimental materials: mouse plasma and tissue
Sample pretreatment process: 3 μL of working solution was taken, and 57 μL of blank matrix was added into a 1.5 mL centrifuge tube, and then 240 μL of acetonitrile solution containing 200 ng/mL tolbutamide and labetalol mixed with 0.1% formic acid was added to precipitate protein. The mixture was vortexed and mixed for 1 minute, and then centrifuged in a 4° C. centrifuge at 13000 rpm for 15 minutes. 100 μL of supernatant was taken and added to another 96 deep well plate, and 100 μL of methanol:water (1:3, v:v) solution containing 0.1% FA was added. The mixture was mixed with shaking for 1 min, and centrifuged at 3500 rpm for 5 min in a 96-well plate centrifuge and the sample was injected directly. […]

O=C(c1ccc(F)cc1C(F)(F)F)c1cnc2n1CCN(c1cn[nH]c(=O)c1Cl)C2 [Compound 1-6, 4-chloro-5-(3-(4-fluoro-2-(trifluoromethyl)benzoyl)-5,6-dihydroimidazo[1,2-a]pyrazin-7(8H)-yl)pyridazin-3(2H)-one]
AUC(0-t) ([1]; mouse, plasma, iv): 1860 ng·h/mL | Cmax ([1]; mouse, plasma, iv): 1110 ng/mL | bioavailability ([1]; mouse, plasma, po, 1 mg/kg, p.o. vs i.v.): 66.8% | AUC(0-t) ([1]; mouse, plasma, po): 1240 ng·h/mL | Cmax ([1]; mouse, plasma, po): 422 ng/mL | time of peak plasma concentration ([1]; oral administration, 10 mg/kg, previous PK results): 1 h | concentration at 0.167 h ([2]; brain, 20% solutol, read-out: concentration in brain): 706 ng/g | concentration at 1 h ([2]; brain, 20% solutol, 1 hour): 161 ng/g | concentration at 10 h ([2]; brain, 20% solutol, 10 hours): 25.9 ng/g | Kp at 0.167 h ([2]; brain, read-out: brain, times of the plasma concentration): 0.05 | Kp at 1 h ([2]; brain, 1 hour, read-out: brain, times of the plasma concentration): 0.19 | Kp at 10 h ([2]; brain, 10 hours, read-out: brain, times of the plasma concentration): 0.09 | concentration at 0.167 h ([2]; kidney, 20% solutol, read-out: concentration in kidney): 1470 ng/g | Kp at 0.167 h ([2]; kidney, read-out: kidney, times of the plasma concentration): 2.5 | Kp at 1 h ([2]; kidney, 1 hour, read-out: kidney, times of the plasma concentration): 2.51 | Kp at 10 h ([2]; kidney, 10 hours, read-out: kidney, times of the plasma concentration): 1.5 | concentration at 0.167 h ([2]; liver, 20% solutol, read-out: concentration in liver): 3260 ng/g | Kp at 0.167 h ([2]; liver, read-out: liver, times of the plasma concentration): 5.55 | Kp at 1 h ([2]; liver, 1 hour, read-out: liver, times of the plasma concentration): 4.53 | Kp at 10 h ([2]; liver, 10 hours, read-out: liver, times of the plasma concentration): 5.05

— US20240317755A1, “HETEROCYCLIC COMPOUND, AND INTERMEDIATE THEREOF, PREPARATION METHOD THEREFOR AND USE THEREOF” (WUHAN LL SCIENCE AND TECHNOLOGY DEVELOPMENT CO., LTD., priority 2021, published 2024)
